Data as given in patent publication US20240148722A1, “SMALL MOLECULES THAT BIND TO TDP-43 FOR THE TREATMENT OF ALS AND RELATED DISORDERS” (Biohaven Therapeutics Ltd., priority 2021, published 2024).

Molecular target: TDP-43 1-260 (Homo sapiens, UniProt Q13148)
Sequence (Q13148 1-260): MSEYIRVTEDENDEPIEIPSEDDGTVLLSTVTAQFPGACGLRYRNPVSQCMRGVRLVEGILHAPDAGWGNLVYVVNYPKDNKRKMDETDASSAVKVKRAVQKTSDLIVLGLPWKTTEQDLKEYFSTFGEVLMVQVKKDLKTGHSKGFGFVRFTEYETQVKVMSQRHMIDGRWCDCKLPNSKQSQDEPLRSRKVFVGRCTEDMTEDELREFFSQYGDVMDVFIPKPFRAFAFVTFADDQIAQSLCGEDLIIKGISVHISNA
Assay: TDP-43 alpha-screen assay with bt-TAR32
Type: binding
Conditions: bt-TAR32 0.125 nM; 3 h at room temperature; read-out: Activity (μM) in the TDP-43-DNA alpha-screen assay
Procedure: Alpha-screen assay. […] Briefly, assays contained TDP-43 1-260 (15 ng/mL, 0.27 nM), 10 mg/mL of both streptavidin donor beads and anti-GST acceptor beads with various concentrations of bt-TAR32 (˜18 to +14 in the HIV1 LTR) and test compound in a final volume of 20 mL of 25 mM Tris, 0.1% CHAPS, pH 7.4 in white, opaque low volume 384-well plates. After 3 h incubation at room temperature, the AlphaScreen signal was measured using a Synergy 2 plate reader (Biotek, Winooski, VT). […] Nonspecific binding was determined in the presence of 10 mM bt-TDP43 and was less than 10% of total binding. IC50 values were obtained from nonlinear regression fits of the data to a one-site binding model using Graph Pad Prism, version 5.0 (GraphPad Software, San Diego, CA). Comparison of competitive inhibition and mixed type inhibition models were evaluated using the F-test on global fits of the data also in Graph Pad Prism, version 5.0.
Work on `COc1ccc(-c2cc(N(C)CCCN(C)C)cc(-c3ccc(N4CCN(C)CC4)cc3)n2)cc1` [Example 42, N-(3-(dimethylamino)propyl)-2-(4-methoxyphenyl)-N-methyl-6-(4-(4-methylpiperazin-1-yl)phenyl)pyridin-4-amine] yielded an IC50 of 0.46 µM. `COc1ccc(-c2cc(NCCCN)cc(-n3cc4c(n3)CNC4)n2)cc1` [Example 43] gave an IC50 of 0.46 µM. For `CN(C)CCCNc1cc(-c2ccc(N3CCNCC3)cc2)nc(-c2ccc(N3CCCC3)nc2)c1` [Example 44], the IC50 was 7.95 µM. Molecule `CN1CCN(c2cncc(-c3cc(NCCCN)cc(-c4ccc(N5CCNCC5)cc4)n3)c2)CC1` [Example 45] has an IC50 of 1.07 µM. With `COc1ccc(-c2cc(NCCCN3CCCCC3)cc(-c3cc(OC)cc(OC)c3)n2)cc1` [Example 46] the IC50 was 6.93 µM. `COc1ccc(-c2cc(NCCCN(C)CCCN)cc(-c3c(C)noc3C)n2)cc1` [Example 47] gave an IC50 of 4.64 µM. Work on `COc1ccc(-c2cc(NCCCc3cnc[nH]3)cc(-c3ccc(N4CCN(C)CC4)cc3)n2)cc1` [Example 48] yielded an IC50 of 3.77 µM. With `CCOC(=O)N1CCC(Nc2cc(-c3ccc(OC)cc3)nc(-c3ccc(N4CCNCC4)cc3)c2)CC1` [Example 50] the IC50 was 9.49 µM. With `COc1cccc(-c2cc(NCCCN(C)CCCN)cc(-c3ccc(N4CCNCC4)cc3)n2)c1` [Example 51] the IC50 was 0.64 µM. `COc1ccc(-c2cc(NCCCN(C)CCCN)cc(-c3cnc(N4CCOCC4)s3)n2)cc1` [Example 52, N^1-(3-aminopropyl)-N^3-(2-(4-methoxyphenyl)-6-(2-morpholinothiazol-5-yl)pyridin-4-yl)-N^1-methylpropane-1,3-diamine] gave an IC50 of 5.58 µM. With `CNS(=O)(=O)c1ccc(-c2cc(NCCCN(C)CCCN)cc(-c3ccc(OC)cc3)n2)cc1` [Example 53] the IC50 was 4.17 µM. Molecule `COc1ccc(-c2cc(NC3(CCN)CC3)cc(-c3ccc(N4CCNCC4)cc3)n2)cc1` [Example 54] has an IC50 of 3.56 µM. In the case of `COc1ccc(-c2cc(NCC3CCNC3)cc(-c3ccc(N4CCN(C)CC4)cc3)n2)cc1` (centres unmarked) [Example 55], the IC50 is reported as 3.56 µM. Work on `COc1ccc(-c2cc(NCC3CN(C)CCO3)cc(-c3ccc(N4CCN(C)CC4)cc3)n2)cc1` (centres unmarked) [Example 56] yielded an IC50 of 3.24 µM. Work on `COc1ccc(-c2cc(NCC3CCCN3)cc(-c3ccc(N4CCC(C)CC4)cc3)n2)cc1` (centres unmarked) [Example 57] yielded an IC50 of 2.85 µM. With `COc1ccc(-c2cc(NC3CC4CCC(C3)N4C)cc(-c3ccc(N4CCN(C)CC4)cc3)n2)cc1` (centres unmarked) [Example 58] the IC50 was 2.85 µM. Work on `COc1ccc(-c2cc(NCCCN(C)C)cc(-c3ccc(N4CCOCC4)cc3)n2)cc1` [Example 59] yielded an IC50 of 2.04 µM. With `COc1ccc(-c2cc(NC3CCNCC3(F)F)cc(-c3ccc(N4CCN(C)CC4)cc3)n2)cc1` (centres unmarked) [Example 60] the IC50 was 11 µM. Molecule `COc1ccc(-c2cc(NCCCN3CCCCC3)cc(C3=CCNCC3)n2)cc1` [Example 61] has an IC50 of 1.87 µM. In the case of `COc1ccc(-c2cc(NCCCN(C)C)cc(-c3ccc(C[C@@H](N)C(=O)O)cc3)n2)cc1` [Example 62], the IC50 is reported as 1.85 µM. Work on `COc1ccc(-c2cc(NCC(F)(F)CN)cc(-c3ccc(N4CCN(C)CC4)cc3)n2)cc1` [Example 63, N-(3-amino-2,2-difluoropropyl)-2-(4-methoxyphenyl)-6-(4-(4-methylpiperazin-1-yl)phenyl)pyridin-4-amine] yielded an IC50 of 1.49 µM. `COc1ccc(-c2cc(/N=N\C3CCNCC3)cc(-c3ccc(N4CCNCC4)cc3)n2)cc1` [Example 64] showed an IC50 of 1.48 µM. Molecule `COc1ccc(-c2cc(NCCCN3CCC4NCCC43)cc(-c3ccc(N4CCNCC4)cc3)n2)cc1` (centres unmarked) [Example 65] has an IC50 of 1.32 µM. Work on `COc1ccc(-c2cc(NCCCOCCCN)cc(-c3ccc(N4CCNCC4)cc3)n2)cc1` [Example 66] yielded an IC50 of 1.2 µM. Molecule `COc1ccc(-c2cc(NCC3CCCN(C)C3)cc(-c3ccc(N4CCN(C)CC4)cc3)n2)cc1` (centres unmarked) [Example 67] has an IC50 of 1.17 µM. `COc1ccc(-c2cc(NC3CCNCC3F)cc(-c3ccc(N4CCN(C)CC4)cc3)n2)cc1` (centres unmarked) [Example 68] showed an IC50 of 0.89 µM. `COc1ccc(-c2cc(NCCCN(C)CCCN)cc(-c3ccc(N4CCCCC4)cc3)n2)cc1` [Example 69] showed an IC50 of 0.74 µM. `COc1ccc(-c2cc(NCCN(C)CCN)cc(-c3ccc(N4CCNCC4)cc3)n2)cc1` [Example 70] gave an IC50 of 0.63 µM. Work on `COc1ccc(-c2cc(NCCCN(C)CCCN)cc(CCC3CC3)n2)cc1` [Example 71, N-{3-[(3-aminopropyl)(methyl)amino]propyl}-2-(2-cyclopropylethyl)-6-(4-methoxyphenyl)pyridin-4-amine] yielded an IC50 of 0.57 µM. For `COc1ccc(-c2cc(NCCCN3CCNCC3)cc(-c3ccc(N4CCN(C)CC4)cc3)n2)cc1` [Example 72], the IC50 was 0.55 µM. `COc1ccc(-c2cc(NCCOCCN)cc(-c3ccc(N4CCNCC4)cc3)n2)cc1` [Example 73, N-(2-(2-aminoethoxy)ethyl)-2-(4-methoxyphenyl)-6-(4-(piperazin-1-yl)phenyl)pyridin-4-amine] showed an IC50 of 0.49 µM. For `COc1ccc(-c2cc(NCCN3CCNCC3)cc(-c3ccc(N4CCNCC4)cc3)n2)cc1` [Example 74], the IC50 was 0.49 µM. Work on `COc1ccc(-c2cc(N[C@@H]3CCNC[C@@H]3OC)cc(-c3ccc(N4CCN(C)CC4)cc3)n2)cc1` [Example 75] yielded an IC50 of 0.36 µM. `COc1ccc(-c2cc(NCCCN(C)CCCN)cc(-c3ccc(N4CCN(C)C(F)C4)cc3)n2)cc1` (centres unmarked) [Example 76] showed an IC50 of 0.23 µM. `CN(CCCN)CCCNc1cc(-c2ccc(-c3ccncc3)cc2)nc(-c2ccc(N3CCNCC3)cc2)c1` [Example 77] gave an IC50 of 0.13 µM. `COc1ccc(-c2cc(NCCCN(C)CCCN)nc(-c3ccc(N4CCNCC4)cc3)n2)cc1` [Example 78, N-{3-[(3-aminopropyl)(methyl)amino]propyl}-6-(4-methoxyphenyl)-2-[4-(piperazin-1-yl)phenyl]pyrimidin-4-amine] showed an IC50 of 0.2 µM. `COc1ccc(-c2cc(NCCCN(C)C)cc(-c3ccc(OCCCN(C)C)cc3)n2)cc1` [Example 80] showed an IC50 of 0.21 µM. In the case of `COc1ccc(-c2cc(NCCCN(C)C)cc(-c3ccc(OCCCN(C)C)nc3)n2)cc1` [Example 81], the IC50 is reported as 0.72 µM. With `CN(C)CCCNc1cc(-c2ccc(OCCCN3CCCC3)cc2)nc2ccccc12` [Example 82] the IC50 was 0.11 µM. Work on `COc1cc2c(NCCCN(C)C)ccnc2cc1OCCN1CCCC1` [Example 83] yielded an IC50 of 0.19 µM. For `CN(C)CCCNc1cc(-c2ccc(OCCn3cccn3)cc2)nc2ccccc12` [Example 84], the IC50 was 0.55 µM. `N[C@H]1C[C@H](Nc2cc(-c3ccc(N4CCNCC4)cc3)nc3ccsc23)C1` [Example 85, (1r,3r)-N1-(5-(4-(piperazin-1-yl)phenyl)thieno[3,2-b]pyridin-7-yl)cyclobutane-1,3-diamine] gave an IC50 of 0.16 µM. With `NCCCNc1cc(-c2ccc(N3CCNCC3)cc2)nc2ccsc12` [Example 86] the IC50 was 0.2 µM. Molecule `NCCCNc1n[nH]c2cc(-c3ccc(N4CCNCC4)cc3)ccc12` [Example 87] has an IC50 of 0.15 µM. In the case of `COc1ccc(-c2cc(N[C@H]3C[C@H](N)C3)cc(-c3cccc(OCCN4CCCC4)c3)n2)cc1` [Example 88, trans-N1-(2-(3-(2-(pyrrolidin-1-yl)ethoxy)phenyl)-6-(4-methoxyphenyl)pyridin-4-yl)cyclobutane-1,3-diamine], the IC50 is reported as 0.18 µM. `COc1ccc(-c2cc(NCCCN(C)C)cc(-c3cccc(OCCCN(C)C)c3)n2)cc1` [Example 89, 2-(3-(3-(dimethylamino)propoxy)phenyl)-N-(3-(dimethylamino)propyl)-6-(4-methoxyphenyl)pyridin-4-amine] showed an IC50 of 0.17 µM. In the case of `COc1ccc(-c2cc(N[C@H]3CC[C@H](N)CC3)cc(-c3cccc(OCCN4CCCC4)c3)n2)cc1` [Example 90], the IC50 is reported as 0.09 µM. In the case of `COc1ccc(-c2cc(NCCCN(C)C)cc(-c3cccc(OCCN4CCCC4)c3)n2)cc1` [Example 91], the IC50 is reported as 0.16 µM. `COc1ccc(-c2cc(NCCCN(C)C)cc(-c3cccc(OCCN(C)C)c3)n2)cc1` [Example 92] showed an IC50 of 0.34 µM. In the case of `COc1ccc(-c2cc(N[C@H]3CC[C@H](N)CC3)cc(-c3cccc(OCCN(C)C)c3)n2)cc1` [Example 93, trans-N1-(2-(3-(2-(dimethylamino)ethoxy)phenyl)-6-(4-methoxyphenyl)pyridin-4-yl)cyclohexane-1,4-diamine], the IC50 is reported as 0.11 µM. With `COc1ccc(-c2cc(N[C@H]3C[C@H](N)C3)cc(-c3ccc(CN(C)CCN(C)C)o3)n2)cc1` [Example 96, N1-{2-[5-({[2-(dimethylamino)ethyl](methyl)amino}methyl)furan-2-yl]-6-(4-methoxyphenyl)pyridin-4-yl}cyclobutane-1,3-diamine] the IC50 was 2.4 µM. “Cis-N1-(2-(3-(2-(pyrrolidin-1-yl)ethoxy)phenyl)-6-(4-methoxyphenyl)pyridin-4-yl)cyclobutane-1,3-diamine [Example 94]” gave an IC50 of 0.49 µM. For “Ethyl 4-(2-(4-methoxyphenyl)-6-(4-(piperazin-1-yl)phenyl)pyridin-4-ylamino)piperidine-1-carboxylate [Example 49]”, the IC50 was 5.78 µM. “N^1-(4-(4-methoxyphenyl)-6-(4-(piperazin-1-yl)phenyl)pyridin-2-yl)-N^3,N^3-dimethylpropane-1,3-diamine [Example 79]” gave an IC50 of 1.09 µM.

Molecular target: T1, TDP-43 (Homo sapiens, UniProt Q13148)
T1 sequence (Q13148 whole entry): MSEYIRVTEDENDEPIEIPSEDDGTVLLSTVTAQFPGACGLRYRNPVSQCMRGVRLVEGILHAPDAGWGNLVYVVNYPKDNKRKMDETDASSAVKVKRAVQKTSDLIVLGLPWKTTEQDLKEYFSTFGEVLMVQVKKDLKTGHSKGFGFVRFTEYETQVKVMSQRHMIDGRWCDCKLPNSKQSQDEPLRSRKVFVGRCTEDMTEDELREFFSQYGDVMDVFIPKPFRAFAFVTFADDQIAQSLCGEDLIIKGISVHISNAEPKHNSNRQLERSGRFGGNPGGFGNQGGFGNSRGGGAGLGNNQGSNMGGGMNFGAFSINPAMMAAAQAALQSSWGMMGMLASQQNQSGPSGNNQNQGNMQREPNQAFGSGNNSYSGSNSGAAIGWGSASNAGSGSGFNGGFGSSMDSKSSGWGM
Assay: not given
Conditions: using bt-(TG)6 and not bt-TAR32; Biochimie, 2012, 94, 1974-1981; cited from earlier work
In the case of `COc1ccc(-c2cc(NCCCN(C)C)c3ccccc3n2)cc1` [Compound I], the “activity in a TDP-43 alpha-screen” value is listed as “active”.

Molecular target: T1, TDP-43
Assay: not given
Conditions: cited from earlier work
In the case of `COc1ccc(-c2cc(NCCCN(C)C)c3ccccc3n2)cc1` [Compound I], the “caspase-7 cleavage of TDP-43” value is listed as “promoted”.
